Data set [1] concerns the target Mu-type opioid receptor (Rattus norvegicus, UniProt P33535). Description: Displacement of [3H]DAMGO from rat brain mu opioid receptor.
Data set [2] concerns the target Delta-type opioid receptor (Mus musculus, UniProt P32300). The data set can be described thus: Agonist activity at delta opioid receptor in mouse vas deferens. Type of data set: functional, tissue-based.
In data set [3] the target is Mu-type opioid receptor (Cavia porcellus, UniProt P97266). Description: Agonist activity at mu opioid receptor in guinea pig ileum. It is filed as functional, tissue-based.
Chain of Mu-type opioid receptor (Cavia porcellus, UniProt P97266) (P97266 whole entry): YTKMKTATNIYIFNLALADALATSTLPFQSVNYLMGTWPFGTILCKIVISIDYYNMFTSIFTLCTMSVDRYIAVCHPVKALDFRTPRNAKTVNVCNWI
The target in data set [4] is Delta-type opioid receptor (Rattus norvegicus, UniProt P33533). Description: Displacement of [3H]DSLET from rat brain delta opioid receptor. (Displacement assays read how much labelled ligand stays bound in the presence of the test substance.)
Chain of Delta-type opioid receptor (Rattus norvegicus, UniProt P33533) (P33533 whole entry): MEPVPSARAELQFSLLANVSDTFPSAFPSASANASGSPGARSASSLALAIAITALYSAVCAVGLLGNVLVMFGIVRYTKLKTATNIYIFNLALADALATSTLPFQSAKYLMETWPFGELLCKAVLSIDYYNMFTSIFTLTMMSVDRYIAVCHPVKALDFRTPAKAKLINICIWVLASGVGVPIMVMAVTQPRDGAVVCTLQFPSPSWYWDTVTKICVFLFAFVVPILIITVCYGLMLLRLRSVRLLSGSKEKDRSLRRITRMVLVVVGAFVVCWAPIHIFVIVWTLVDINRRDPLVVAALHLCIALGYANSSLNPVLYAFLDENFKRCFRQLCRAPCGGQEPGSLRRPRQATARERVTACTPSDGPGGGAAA
Data set [5] deals with Kappa-type opioid receptor (Cavia porcellus, UniProt P41144). The data set can be described thus: Displacement of [3H]U-69593 from guinea pig brain kappa opioid receptor.
Chain of Kappa-type opioid receptor (P41144 whole entry): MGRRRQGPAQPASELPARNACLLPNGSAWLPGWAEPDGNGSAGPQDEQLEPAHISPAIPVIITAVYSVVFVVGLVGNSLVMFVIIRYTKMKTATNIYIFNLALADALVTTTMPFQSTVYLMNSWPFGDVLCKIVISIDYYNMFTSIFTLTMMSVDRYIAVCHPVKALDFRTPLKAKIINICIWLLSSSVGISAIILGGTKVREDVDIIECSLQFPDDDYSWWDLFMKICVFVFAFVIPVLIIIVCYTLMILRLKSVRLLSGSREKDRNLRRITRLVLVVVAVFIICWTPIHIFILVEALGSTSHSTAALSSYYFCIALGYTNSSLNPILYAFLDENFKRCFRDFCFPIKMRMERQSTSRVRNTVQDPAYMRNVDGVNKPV
Data set [6] relates to Brain. Description: Stability in rat brain membrane after 40 mins assessed as degradation by disulfide reductases. Type of data set: ADME, cell membranes.
Data set [7] has as its system Brain. Description: Stability in rat brain membrane upto 24 hrs assessed as degradation by disulfide reductases. Type of data set: ADME, cell membranes.

Experimental findings from ChEMBL document CHEMBL1142949, “Dicarba analogues of the cyclic enkephalin peptides H-Tyr-c[D-Cys-Gly-Phe-D(or L)-Cys]NH(2) retain high opioid activity” (J Med Chem, 2007) are described below.

Chain of Mu-type opioid receptor (Rattus norvegicus, UniProt P33535) (P33535 whole entry): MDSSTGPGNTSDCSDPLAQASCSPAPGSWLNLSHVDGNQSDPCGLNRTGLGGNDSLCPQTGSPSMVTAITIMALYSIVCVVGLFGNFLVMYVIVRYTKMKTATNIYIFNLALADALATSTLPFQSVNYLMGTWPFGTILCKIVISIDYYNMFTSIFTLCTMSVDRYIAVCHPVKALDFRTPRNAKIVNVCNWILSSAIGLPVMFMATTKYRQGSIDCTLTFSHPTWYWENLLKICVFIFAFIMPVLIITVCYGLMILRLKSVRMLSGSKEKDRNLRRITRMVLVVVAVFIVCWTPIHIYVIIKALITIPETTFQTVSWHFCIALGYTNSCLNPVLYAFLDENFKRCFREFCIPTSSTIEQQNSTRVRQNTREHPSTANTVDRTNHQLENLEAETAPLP
Chain of Delta-type opioid receptor (Mus musculus, UniProt P32300) (P32300 whole entry): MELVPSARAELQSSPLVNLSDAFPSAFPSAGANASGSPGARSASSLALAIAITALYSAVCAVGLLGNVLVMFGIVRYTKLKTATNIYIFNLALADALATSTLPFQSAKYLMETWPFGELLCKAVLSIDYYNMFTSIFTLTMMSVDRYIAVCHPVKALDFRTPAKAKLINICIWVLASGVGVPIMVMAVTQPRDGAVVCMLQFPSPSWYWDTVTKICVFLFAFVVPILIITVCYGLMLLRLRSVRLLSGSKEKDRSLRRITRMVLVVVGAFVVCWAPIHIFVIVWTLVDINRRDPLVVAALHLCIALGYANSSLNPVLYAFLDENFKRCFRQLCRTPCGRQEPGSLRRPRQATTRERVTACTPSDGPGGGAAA

Take `NC(=O)[C@H]1C/C=C/C[C@@H](NC(=O)[C@@H](N)Cc2ccc(O)cc2)C(=O)NCC(=O)N[C@@H](Cc2ccccc2)C(=O)N1`: the Ki – broadly, a dissociation constant, usually derived from enzyme kinetics or from competition with a known ligand – on Mu-type opioid receptor [1] was found to be 1.05 nM; in data set [4] it was 1.92 nM; in data set [5], 30.4 nM. The IC50 (in general, the concentration needed to halve the response being measured) was 4.38 nM in data set [2] and 5.63 nM on Mu-type opioid receptor [3].

As to `NC(=O)[C@@H]1C/C=C\C[C@@H](NC(=O)[C@@H](N)Cc2ccc(O)cc2)C(=O)NCC(=O)N[C@@H](Cc2ccccc2)C(=O)N1`, the values for the Ki (at Mu-type opioid receptor [1]; in data set [4]; in data set [5]) were 2.4 nM, 6.55 nM and 200 nM, respectively. Also, the IC50 in data set [2] came out at 0.496 nM; at Mu-type opioid receptor [3], 1.81 nM. For the same compound, in the data set on Brain [6], the Activity result is given as “Not Active”.

On to `NC(=O)[C@H]1CCCC[C@@H](NC(=O)[C@@H](N)Cc2ccc(O)cc2)C(=O)NCC(=O)N[C@@H](Cc2ccccc2)C(=O)N1`, for which the Ki on Mu-type opioid receptor [1] stood at 1.17 nM; in data set [4], 3.34 nM; in data set [5] it was 71.5 nM. For the same compound, the IC50 worked out at 3.64 nM in data set [2] and 11.2 nM at Mu-type opioid receptor [3].

On to `NC(=O)[C@@H]1C/C=C/C[C@@H](NC(=O)[C@@H](N)Cc2ccc(O)cc2)C(=O)NCC(=O)N[C@@H](Cc2ccccc2)C(=O)N1`, for which the Ki amounted to 0.616 nM on Mu-type opioid receptor [1], 1.25 nM in data set [4] and 57.6 nM in data set [5]. For the same compound, the IC50 in data set [2] turned out to be 0.275 nM; on Mu-type opioid receptor [3], 0.898 nM. In the data set on Brain [6], the Activity entry is “Not Active”.

Regarding `NC(=O)[C@@H]1CSSC[C@@H](NC(=O)[C@@H](N)Cc2ccc(O)cc2)C(=O)NCC(=O)N[C@@H](Cc2ccccc2)C(=O)N1`, the Activity result in the data set on Brain [6] was “Not Active”. The Stability result in the data set on Brain [7] was “Stable”. Also, affinity in data set [5] was put at a Ki of 40.1 nM.

Turning to `NC(=O)[C@H]1C/C=C\C[C@@H](NC(=O)[C@@H](N)Cc2ccc(O)cc2)C(=O)NCC(=O)N[C@@H](Cc2ccccc2)C(=O)N1`, the Ki is 2.27 nM at Mu-type opioid receptor [1], 7.04 nM in data set [4] and 498 nM in data set [5]. Besides, the half-inhibitory concentration (IC50) in data set [2] worked out at 9.91 nM; on Mu-type opioid receptor [3], 11.9 nM.

Regarding `NC(=O)[C@@H]1CCCC[C@@H](NC(=O)[C@@H](N)Cc2ccc(O)cc2)C(=O)NCC(=O)N[C@@H](Cc2ccccc2)C(=O)N1`, the Ki on Mu-type opioid receptor [1] was determined as 2.34 nM; in data set [4], 5.87 nM; in data set [5], 309 nM. Further, the IC50 in data set [2] amounted to 3.19 nM; at Mu-type opioid receptor [3], 1.02 nM. In addition, the Activity result with Brain [6] is listed as “Not Active”.
